Numbers after ± are expanded uncertainties. One block for each molecule: values may come before it.
Legend:
[1] = molar heat capacity at constant pressure; mn = molality of the nth substance listed, in mol/kg; conditions: 298.15 K, 100 kPa, Liquid, Flow calorimetry
[2] = molar heat capacity at constant pressure; conditions: 298.15 K; 101.33 kPa; Liquid; Flow calorimetry

molar heat capacity at constant pressure ([1]; m2 = 0): 75.11 ± 1.5 J/K/mol
Compound: O [water] + [Cl-].[Cs+]

molar heat capacity at constant pressure ([1]; m2 = 0): 75.11 ± 1.5 J/K/mol
Compound: O [water] + [Cl-].[Rb+]

The remaining lines, values behind:

Compound: [Cl-].[Cs+] [cesium chloride] + O
molar heat capacity at constant pressure ([1]; m1 = 0.2644): 74.19 ± 1.5 J/K/mol
molar heat capacity at constant pressure ([1]; m1 = 0.5336): 73.52 ± 1.5 J/K/mol
molar heat capacity at constant pressure ([1]; m1 = 1.066): 72.48 ± 1.5 J/K/mol
molar heat capacity at constant pressure ([1]; m1 = 2.018): 70.13 ± 1.4 J/K/mol
molar heat capacity at constant pressure ([1]; m1 = 3.02): 68.3 ± 1.4 J/K/mol
molar heat capacity at constant pressure ([1]; m1 = 3.877): 67.71 ± 1.4 J/K/mol
molar heat capacity at constant pressure ([1]; m1 = 5.674): 66.01 ± 1.3 J/K/mol
molar heat capacity at constant pressure ([1]; m1 = 6.822): 65.63 ± 1.3 J/K/mol

Compound: [Cl-].[Rb+] [rubidium chloride] + O
molar heat capacity at constant pressure ([1]; m1 = 0.4938): 73.89 ± 1.5 J/K/mol
molar heat capacity at constant pressure ([1]; m1 = 0.8703): 73.2 ± 1.5 J/K/mol
molar heat capacity at constant pressure ([1]; m1 = 1.515): 71.66 ± 1.4 J/K/mol
molar heat capacity at constant pressure ([1]; m1 = 2.41): 69.91 ± 1.4 J/K/mol
molar heat capacity at constant pressure ([1]; m1 = 3.388): 68.46 ± 1.4 J/K/mol
molar heat capacity at constant pressure ([1]; m1 = 4.213): 67.56 ± 1.4 J/K/mol
molar heat capacity at constant pressure ([1]; m1 = 4.888): 67.01 ± 1.3 J/K/mol
molar heat capacity at constant pressure ([1]; m1 = 5.84): 66.18 ± 1.3 J/K/mol

Compound: [Cl-].[Na+] [sodium chloride] + O
molar heat capacity at constant pressure ([1]; m1 = 2.05): 72.32 ± 1.5 J/K/mol

Compound: O [water]
molar heat capacity at constant pressure [2]: 75.11 ± 1.5 J/K/mol

Source: the NIST ThermoML archive (doi:10.1016/j.jct.2016.09.031)
